Results: patent US20090060851A1, “USE OF IDEBENONE FOR THE PREPARATION OF A TOPICALLY-APPLIED DEPIGMENTATION COMPOSITION AND CORRESPONDING COMPOSITION” (priority 2005, published 2009)

How the values were obtained:
Assay type in all cases: cell-based, human
SK-MEL-28 [1] = test: Dopaquinone content determination (OD475) in SK-MEL cells; settings: assayed day 5
Method: (§1) In vitro determinations were performed following the method devised by Dooley et al. (Skin Pharmacol. 1994; 7:188-200) in order to evaluate the capacity of idebenone to inhibit melanogenesis, according to the process described below:
(§2) Cells: The study was carried out using a cell line derived from human melanoma, provided by ABAC (Asociación Banco Argentino de Células—Cell Bank of Argentina), with melanin synthesis capability (SK-MEL-28, ATCC origin). The cells were grown in plastic culture bottles or in 24-well plastic dishes in a modified Eagle medium (DMEM) supplemented with 10% fetal bovine serum (FBS) and were maintained at 37° C. in a 5% CO2 atmosphere.
(§3) Study of in vitro compounds: SK-MEL cells detached with trypsin were seeded on plastic 24-well dishes (density of 1×10^5 cells per well) and incubated for 24 hours in modified Eagle medium (DMEM) supplemented with 10% fetal bovine serum (FBS) prior to treating with the compound to be evaluated. After 24 hours have lapsed, the medium was replaced with 990 μl of fresh medium. 10 μl of sterile vehicle (50% propylene glycol, 30% ethanol and 20% distilled water) containing different concentrations of the compounds to be evaluated were added to this fresh medium.
(§4) Decimal dilutions of each compound in the sterile vehicle were prepared in order to obtain final concentrations of the compound to be studied ranging between 1.000 and 0.01 μg/ml. […]
[…] […] All the concentrations of the compounds were studied in triplicate, comparing the mean of the 3 wells treated with the compounds with those treated with the vehicle alone.
(§5) Melanin content determination: The SK-MEL cell melanin content was determined after stirring the culture medium and washing the cells with PBS. The cells were then lysated by means of adding 1 ml of 1N NaOH to each well and repeated manual pipetting. The raw cell extract was analyzed using a spectrophotometer at 400 and 475 nm to determine the melanin and dopaquinone content, respectively. The results were expressed as a percentage of the cell cultures treated with the vehicle.

SK-MEL-28 [2] = test: Melanin content determination (OD400) in SK-MEL cells; settings: for OD400 (melanin) / OD400 expressed as percentage of control (melanin): assayed day 5
Method: as §1, §2, §3, §4
[…] The cells were thus continuously exposed to the compounds under study for the 5 days the culture lasted. All the concentrations of the compounds were studied in triplicate, comparing the mean of the 3 wells treated with the compounds with those treated with the vehicle alone.
as §5

SK-MEL-28 [3] = test: Cell number quantitation with violet crystal
Method: Cells: The study was carried out using a cell line derived from human melanoma, provided by ABAC (Asociación Banco Argentino de Células—Cell Bank of Argentina), with melanin synthesis capability (SK-MEL-28, ATCC origin). […] Study of in vitro compounds: […] After 24 hours have lapsed, the medium was replaced with 990 μl of fresh medium. 10 μl of sterile vehicle (50% propylene glycol, 30% ethanol and 20% distilled water) containing different concentrations of the compounds to be evaluated were added to this fresh medium. […] On the fourth day, the cells were not treated, and the remaining adherent cells were assayed on the fifth day according to the methods described below. The cells were thus continuously exposed to the compounds under study for the 5 days the culture lasted. All the concentrations of the compounds were studied in triplicate, comparing the mean of the 3 wells treated with the compounds with those treated with the vehicle alone. Cell number quantitation with violet crystal: A stain with a violet crystal aqueous solution was used for the purpose of determining the number of cells adhering to the plastic surviving in vitro treatment by means of indirect methods. […] The dishes were stained for 5 minutes at room temperature on a rotary platform, with gentle stirring. Then the excess colorant was decanted by turning the dish over and the entire dish was submerged 4 times in distilled water in a suitable container. After rinsing, the dishes were turned over and allowed to drip on absorbent paper until the excess water was completely removed. […] The plates were finally placed on a rotary agitator for 30 minutes at room temperature. […] In order to determine the fraction of cells surviving treatment at a specific concentration of the experimental agent, the OD590 of the treated wells (average of three measurements) was divided by the OD590 of the wells used with a control vehicle (average of three measurements).

[4] = dilution −1, treated daily 3 days
[5] = dilution −2, treated daily 3 days
[6] = dilution −3, treated daily 3 days
[7] = dilution −4, treated daily 3 days
[8] = dilution −5, treated daily 3 days

Oc1ccc(O)cc1 [hydroquinone, 1,4-benzenediol]
OD475 (dopaquinone) (SK-MEL-28 [1]; [4]): 0.0001
OD475 expressed as percentage of control (dopaquinone) (SK-MEL-28 [1]; [4]): 0%
OD475 (dopaquinone) (SK-MEL-28 [1]; [5]): 0.0013
OD475 expressed as percentage of control (dopaquinone) (SK-MEL-28 [1]; [5]): 8%
OD475 (dopaquinone) (SK-MEL-28 [1]; [6]): 0.0083
OD475 expressed as percentage of control (dopaquinone) (SK-MEL-28 [1]; [6]): 51%
OD475 (dopaquinone) (SK-MEL-28 [1]; [7]): 0.0163
OD475 expressed as percentage of control (dopaquinone) (SK-MEL-28 [1]; [7]): 100%
OD475 (dopaquinone) (SK-MEL-28 [1]; [8]): 0.0163
OD475 expressed as percentage of control (dopaquinone) (SK-MEL-28 [1]; [8]): 100%
Melanin synthesis inhibition (SK-MEL-28 [2]; SK-MEL-28, Example 5): stops being effective
OD400 (melanin) (SK-MEL-28 [2]; [4]): 0.007
OD400 expressed as percentage of control (melanin) (SK-MEL-28 [2]; [4]): 21%
OD400 (melanin) (SK-MEL-28 [2]; [5]): 0.012
OD400 expressed as percentage of control (melanin) (SK-MEL-28 [2]; [5]): 36%
OD400 (melanin) (SK-MEL-28 [2]; [6]): 0.021
OD400 expressed as percentage of control (melanin) (SK-MEL-28 [2]; [6]): 64%
OD400 (melanin) (SK-MEL-28 [2]; [7]): 0.036
OD400 expressed as percentage of control (melanin) (SK-MEL-28 [2]; [7]): 109%
OD400 (melanin) (SK-MEL-28 [2]; [8]): 0.034
OD400 expressed as percentage of control (melanin) (SK-MEL-28 [2]; [8]): 103%
Toxicity for cells (SK-MEL-28 [3]; SK-MEL-28, high concentrations): toxicity for hydroquinone was higher
Percentage of viable cells (SK-MEL-28 [3]; dilution −1, percentage of control vehicle): 34%
Percentage of viable cells (SK-MEL-28 [3]; dilution −2, percentage of control vehicle): 58%
Percentage of viable cells (SK-MEL-28 [3]; dilution −3, percentage of control vehicle): 77%
Percentage of viable cells (SK-MEL-28 [3]; dilution −4, percentage of control vehicle): 89%
Percentage of viable cells (SK-MEL-28 [3]; dilution −5, percentage of control vehicle): 95%
